Laboratory results as given in PubChem BioAssay AID2060606 (Molecular Pharmacology Branch, DTP, NCI, 2025).

System: 922993-354-T-J3-PDC complex spheroids, viability, % test/control
Experiment: Anticancer human tumor 922993-354-T-J3-PDC patient-derived endometrial carcinoma cell line growth inhibition [CLK]
Conditions: for IC50: curve of first compound; for viability, T/C: stronger effect = lower value; active = viability on the fitted dose curve at most 10% of control; inactive = the rest
Summary of the method: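 Patient-derived tumor cells grown as complex spheroids with HUVEC endothelial cells and mesenchymal stem cells, treated with drug combinations. Concentrations descend in half-log steps from near clinical Cmax, or from 10 microM if Cmax unknown.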
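Note: spheroids exposed to the agents for 7 days before readout.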

COc1ccc([C@@H](O)c2cc(-c3ncnc4cc(N5CCOCC5)ccc34)c(F)cc2Cl)nn1 + CNC(=O)c1ccc(Nc2nc(OC3CCCC3)c3c(-c4ccc5nc(C)oc5c4)c[nH]c3n2)c(OC)c1
< 0.0316 µM: IC50 (second compound 1 µM) | IC50 (second compound 3.16 µM) | IC50 (second compound 10 µM)
> 10 µM: IC50 (second compound 0.0316 µM) | IC50 (second compound 0.1 µM) | IC50 (second compound 0.316 µM)
inactive: viability, T/C (second compound 0.0316 µM, first compound 0.0316 µM) 113% | viability, T/C (second compound 0.0316 µM, first compound 0.1 µM) 112% | viability, T/C (second compound 0.0316 µM, first compound 0.316 µM) 130% | viability, T/C (second compound 0.0316 µM, first compound 1 µM) 121% | viability, T/C (second compound 0.0316 µM, first compound 3.16 µM) 113% | viability, T/C (second compound 0.0316 µM, first compound 10 µM) 91.2% | viability, T/C (second compound 0.1 µM, first compound 0.0316 µM) 104% | viability, T/C (second compound 0.1 µM, first compound 0.1 µM) 110% | viability, T/C (second compound 0.1 µM, first compound 0.316 µM) 99.7% | viability, T/C (second compound 0.1 µM, first compound 1 µM) 125% | viability, T/C (second compound 0.1 µM, first compound 3.16 µM) 104% | viability, T/C (second compound 0.1 µM, first compound 10 µM) 92.5% | viability, T/C (second compound 0.316 µM, first compound 0.0316 µM) 64.3% | viability, T/C (second compound 0.316 µM, first compound 0.1 µM) 64.5% | viability, T/C (second compound 0.316 µM, first compound 0.316 µM) 66.6% | viability, T/C (second compound 0.316 µM, first compound 1 µM) 67.8% | viability, T/C (second compound 0.316 µM, first compound 3.16 µM) 87.1% | viability, T/C (second compound 0.316 µM, first compound 10 µM) 71.9% | viability, T/C (second compound 1 µM, first compound 0.0316 µM) 39.3% | viability, T/C (second compound 1 µM, first compound 0.1 µM) 40.6% | viability, T/C (second compound 1 µM, first compound 0.316 µM) 40% | viability, T/C (second compound 1 µM, first compound 1 µM) 40.9% | viability, T/C (second compound 1 µM, first compound 3.16 µM) 52.1% | viability, T/C (second compound 1 µM, first compound 10 µM) 56.8% | viability, T/C (second compound 3.16 µM, first compound 0.0316 µM) 31.8% | viability, T/C (second compound 3.16 µM, first compound 0.1 µM) 28.8% | viability, T/C (second compound 3.16 µM, first compound 0.316 µM) 34.8% | viability, T/C (second compound 3.16 µM, first compound 1 µM) 41.2% | viability, T/C (second compound 3.16 µM, first compound 3.16 µM) 45.8% | viability, T/C (second compound 3.16 µM, first compound 10 µM) 41% | viability, T/C (second compound 10 µM, first compound 0.0316 µM) 34% | viability, T/C (second compound 10 µM, first compound 0.1 µM) 30.6% | viability, T/C (second compound 10 µM, first compound 0.316 µM) 41.6% | viability, T/C (second compound 10 µM, first compound 1 µM) 33.8% | viability, T/C (second compound 10 µM, first compound 3.16 µM) 44.2% | viability, T/C (second compound 10 µM, first compound 10 µM) 37.1%
